Results on 38 compounds are retold here after ChEMBL document CHEMBL4303773 (Nature, 2020).

Activity calls are given as the source filed them. No cut-off for these calls is given here.

In data set [1] the test system is Vero C1008. As to the kind of experiment: AUC (cytotoxicity %) of compound against Vero E6 cells by MTT assay. The conditions noted are these: chlorocebus sabaeus. Type of data set: toxicity, cell-based.
Data set [2] concerns SARS-CoV-2. Particulars: Chlorocebus sabaeus; Vero C1008.
Data set [3] in a line: (§1) Cytotoxicity of compound against Vero E6 cells by MTT assay. The conditions noted are these: chlorocebus sabaeus, Vero E6 cells.
The subject of data set [4] is Vero C1008. The data set is described as §1. The conditions noted are these: chlorocebus sabaeus, vero c1008.
For data set [5], the system named is SARS-CoV-2. As to the kind of experiment: microbe, parasite or virus in culture. The conditions noted are these: Severe acute respiratory syndrome coronavirus 2, Vero C1008, 48 h. The format is functional, organism-based, Chlorocebus sabaeus.

On to `CC(C)CC(=O)N[C@H](C(=O)N[C@H](C(=O)N[C@@H](CC(C)C)[C@@H](O)CC(=O)N[C@@H](C)C(=O)N[C@@H](CC(C)C)[C@@H](O)CC(=O)O)C(C)C)C(C)C` [PEPSTATIN], for which, in the data set on Vero C1008 [1], the AUC cytotoxicity is 262.3. For the same compound, the AUC in the data set with SARS-CoV-2 [2] is 313. Also, in data set [3], the CC50 was ~19.5 nM (inactive).

As for `CC[C@H](C)C(=O)O[C@H]1C[C@@H](C)C=C2C=C[C@H](C)[C@H](CC[C@@H]3C[C@@H](O)CC(=O)O3)[C@H]21` [LOVASTATIN], the pCC50 in the data set with Vero C1008 [4] was 5.4. In the data set with Vero C1008 [1], `CCc1ccc(CCOc2ccc(CC3SC(=O)NC3=O)cc2)nc1` (stereo not drawn) [PIOGLITAZONE] showed an AUC cytotoxicity of 236.6. For the same compound, the AUC in the data set on SARS-CoV-2 [2] was 272. Besides, the CC50 in data set [3] was ~3630 nM (inactive). In turn, `CC(=O)Oc1ccccc1C(=O)Nc1ncc([N+](=O)[O-])s1` [NITAZOXANIDE] showed an IC50 with SARS-CoV-2 [5] of 2820 nM.

`CN(C)C(=N)NC(=N)N` [METFORMIN]: in the data set with SARS-CoV-2 [2], the AUC is 293. This compound also had an IC50 in the data set on SARS-CoV-2 [5] of about 2860 nM. The compound `C[C@@H](C1CCCCC1)n1c(-c2cc3c(cc2Br)OCO3)nc2cc(C(=O)Nc3ccc(C#N)cc3)ccc21` came in with an AUC cytotoxicity with Vero C1008 [1] of 261.6. Moreover, the AUC in the data set on SARS-CoV-2 [2] is 227. Also, the CC50 in data set [3] is ~102 nM (inactive). On to `O=c1[nH]c(=O)n([C@H]2C[C@H](O)[C@@H](CO)O2)cc1/C=C/Br` [BRIVUDINE], for which the AUC cytotoxicity in the data set on Vero C1008 [1] stood at 244.3. The AUC in the data set on SARS-CoV-2 [2] is 255.

In the case of `Clc1ccc(C(OCCN2CCCCC2)c2ccccc2)cc1` (stereo not drawn) [CLOPERASTINE], the CC50 in data set [3] was ~661 nM (active). For `c1ccc(CNc2nc(NCc3ccccc3)c3ccccc3n2)cc1`, in the data set with Vero C1008 [4], the pCC50 is on record as 5.19. On to `Cc1cc2c(s1)Nc1ccccc1N=C2N1CCN(C)CC1` [OLANZAPINE], for which the CC50 in data set [3] is ~2880 nM (inactive). The compound `COc1cc(OC)c2c(=O)[nH]c(-c3cc(C)c(OCCO)c(C)c3)nc2c1` [APABETALONE] displayed an AUC cytotoxicity with Vero C1008 [1] of 281.9. For the same compound, in the data set on SARS-CoV-2 [2], the AUC was 293. The CC50 in data set [3] is ~207 nM (inactive). Consider `CC(C)c1cc(C(=O)N2Cc3ccc(CN4CCN(C)CC4)cc3C2)c(O)cc1O` [ONALESPIB], for which, in the data set on Vero C1008 [1], the AUC cytotoxicity came out at 170.7. The compound also returned an AUC in the data set with SARS-CoV-2 [2] of 177. For the same compound, the CC50 in data set [3] was about 1.66 nM. `Cc1cc(Nc2cc(N)ncn2)c(=O)n2c1C(=O)NC21CCCCC1` [TOMIVOSERTIB]: the AUC cytotoxicity with Vero C1008 [1] came to 245.9. Moreover, the AUC in the data set with SARS-CoV-2 [2] is 231. This compound yielded a negative logarithm of the CC50 (pCC50) with Vero C1008 [4] of 5.26. `CN(C)C(=O)COC(=O)Cc1ccc(OC(=O)c2ccc(NC(=N)N)cc2)cc1` [CAMOSTAT] came in with an AUC cytotoxicity in the data set with Vero C1008 [1] of 276.3. Also, the AUC in the data set on SARS-CoV-2 [2] is 251. Besides, the CC50 in data set [3] was ~3630 nM (inactive). As to `O=c1[nH]c2ccccc2n1C1CCN(CCCC(c2ccc(F)cc2)c2ccc(F)cc2)CC1` [PIMOZIDE], in the data set on Vero C1008 [4], the pCC50 was 6.13. The compound `CCCC(CCC)C(=O)O` [VALPROIC ACID] registered an AUC cytotoxicity in the data set with Vero C1008 [1] of 235.1. Also, the AUC with SARS-CoV-2 [2] was 300. For the compound `NC(=O)c1ncn([C@@H]2O[C@H](CO)[C@@H](O)[C@H]2O)n1` [RIBAVIRIN], the CC50 in data set [3] is ~21700 nM (inactive). The compound `CCNC(=O)c1noc(-c2cc(C(C)C)c(O)cc2O)c1-c1ccc(CN2CCOCC2)cc1` [LUMINESPIB] had an AUC cytotoxicity in the data set on Vero C1008 [1] of 161.6. The same compound returned an AUC in the data set with SARS-CoV-2 [2] of 172. Besides, the half-maximal cytotoxic concentration (CC50) in data set [3] is about 67.6 nM. Regarding `Cc1noc2c1-c1ccccc1C(c1ccc(Cl)cc1)=N[C@H]2CC(N)=O` [PELABRESIB], the AUC cytotoxicity in the data set with Vero C1008 [1] is listed as 193.2. The AUC with SARS-CoV-2 [2] is 249. Besides, the CC50 in data set [3] is ~42.7 nM (inactive). The compound `C[C@@H]1CN(CCCn2c3ccccc3c3ccccc32)C[C@H](C)N1` [RIMCAZOLE] displayed an AUC cytotoxicity in the data set on Vero C1008 [1] of 215.6. In addition, in the data set with Vero C1008 [4], the pCC50 stood at 2.24. For `O=C(c1ccc(-n2nnc3cccnc32)cc1)N(c1ncccc1Cl)[C@@H]1CCCNC1`, the pCC50 in the data set on Vero C1008 [4] was 5.61. This compound gave a 50% inhibitory concentration (IC50) in the data set on SARS-CoV-2 [5] of 7590 nM.

The compound `C[C@H](CS)C(=O)N1CCC[C@H]1C(=O)O` [CAPTOPRIL] showed an AUC cytotoxicity in the data set with Vero C1008 [1] of 271.9. The AUC in the data set on SARS-CoV-2 [2] was 276. In addition, in data set [3], the CC50 is ~1230 nM (inactive). Compound `CC(C)n1nc(-c2ccc3oc(N)nc3c2)c2c(N)ncnc21` [SAPANISERTIB] came in with an AUC cytotoxicity in the data set on Vero C1008 [1] of 102. Also, the AUC in the data set on SARS-CoV-2 [2] was 329. In data set [3], this compound gave a cytotoxic concentration (CC50) of 1.24 nM. Compound `COc1cccc2c1C(=O)c1c(O)c3c(c(O)c1C2=O)C[C@@](O)(C(C)=O)C[C@@H]3O[C@H]1C[C@H](N)[C@H](O)[C@H](C)O1` [DAUNORUBICIN] showed a 50% inhibitory concentration (IC50) with SARS-CoV-2 [5] of about 214 nM. For `Cc1cc2c(C(N)=O)cccc2n1-c1nc2c(c(NCc3ccccc3)n1)COCC2` [CB-5083], in the data set with SARS-CoV-2 [2], the AUC is 280. In the case of `COC(=O)C1(c2ccc(C)cc2)CC1CN1CCC(O)(c2ccccc2)CC1` (stereo not drawn), the CC50 in data set [3] is ~4000 nM (inactive). With `O=C(O)c1ccc2c(c1)nc(Nc1cccc(Cl)c1)c1ccncc12` [SILMITASERTIB], the AUC cytotoxicity in the data set on Vero C1008 [1] is 225.5. Besides, the AUC in the data set on SARS-CoV-2 [2] was 216. The pCC50 in the data set on Vero C1008 [4] came to 5.5. In the data set on Vero C1008 [1], `N#CC[C@H](C1CCCC1)n1cc(-c2ncnc3[nH]ccc23)cn1` [RUXOLITINIB] showed an AUC cytotoxicity of 248.3. Moreover, in the data set with SARS-CoV-2 [2], the AUC is 316. Regarding `COc1ccc2c(c1)[C@]13CCCC[C@@H]1[C@H](C2)N(C)CC3` [DEXTROMETHORPHAN], in the data set with Vero C1008 [1], the AUC cytotoxicity is on record as 296.5. Moreover, the AUC in the data set on SARS-CoV-2 [2] was 271. In data set [3], this compound had a 50% cytotoxic concentration (CC50) of about 871 nM. In the data set on Vero C1008 [4], `COc1ccc(-c2sc(NC(=O)C(C)(C)C)nc2C)cc1S(=O)(=O)Nc1ccc(O)cc1` registered a pCC50 of 5.25.

`Cc1ncsc1-c1ccc(CNC(=O)[C@@H]2C[C@@H](O)CN2C(=O)[C@@H](NC(=O)COCCOCCOCCNC(=O)C[C@@H]2N=C(c3ccc(Cl)cc3)c3c(sc(C)c3C)-n3c(C)nnc32)C(C)(C)C)cc1` showed a CC50 in data set [3] of 300 nM. For `N=C(N)Nc1ccc(C(=O)Oc2ccc3cc(C(=N)N)ccc3c2)cc1` [NAFAMOSTAT], the AUC in the data set on SARS-CoV-2 [2] is 302. Further, the IC50 with SARS-CoV-2 [5] was ~39800 nM (inactive). As for `Cc1sc2c(c1C)C(c1ccc(Cl)cc1)=N[C@@H](CC(=O)OC(C)(C)C)c1nnc(C)n1-2`, the cytotoxic concentration (CC50) in data set [3] is about 66.8 nM. In data set [3], `CO[C@H]1C[C@@H]2CC[C@@H](C)[C@@](O)(O2)C(=O)C(=O)N2CCCC[C@H]2C(=O)O[C@H]([C@H](C)C[C@@H]2CC[C@@H](O)[C@H](OC)C2)CC(=O)[C@H](C)/C=C(\C)[C@@H](O)[C@@H](OC)C(=O)[C@H](C)C[C@H](C)/C=C/C=C/C=C/1C` [SIROLIMUS] had a CC50 of about 0.479 nM. Consider `NCCCC[C@H](N[C@@H](CCc1ccccc1)C(=O)O)C(=O)N1CCC[C@H]1C(=O)O` [LISINOPRIL ANHYDROUS], for which the CC50 in data set [3] was ~8320 nM (inactive). Turning to `Cc1cc(OCCN2CCOCC2)nn1-c1ccc2ccccc2c1`, in data set [3], the CC50 is ~7620 nM (inactive). Consider `O=C(O)/C(Cc1ccccc1[N+](=O)[O-])=N\Nc1nc(-c2ccc(Cl)c(Cl)c2)cs1`, for which the negative logarithm of the CC50 (pCC50) in the data set on Vero C1008 [4] amounted to 4.32.

In turn, `COc1cccc2c(NCc3ccccc3)nc(-n3c(N)nc4ccccc43)nc12` returned an AUC cytotoxicity in the data set with Vero C1008 [1] of 175.5. For the same compound, the AUC with SARS-CoV-2 [2] is 223. The compound also registered a negative-log CC50 (pCC50) in the data set on Vero C1008 [4] of 2.936.
